{
  "source": "patent US7947279B2",
  "about": "“Peptide having hydrolase activity” (The Trustees of Columbia University in the City of New York, priority 2005, dated 2011)",
  "key": {"[1]": {"tested_on": "BST at the Schaffer collateral/CA1 connection of hippocampal slices", "test": "Basal synaptic transmission (BST) in hippocampal slices", "assay_type": "cell-based, mouse"}, "[2]": {"tested_on": "SY5Y neuroblastoma cells transfected with a degron CL1-GFP expression vector", "test": "Proteasome reporter assay (GFP^u)", "assay_type": "cell-based, human", "conditions": "substance alone", "procedure": "Proteasome reporter assays. In this cell line, human neuroblastoma SH-SY5Y cells were permanently transfected with reporter construct consisting of green fluorescent protein (GFP) conjugated at its C-terminus to a short degron sequence (CL-1) (Gilon et al., 1998). […] The SY5Y-GFP^u cells were grown in 1×DMEM (Invitrogen) supplemented with 15% fetal bovine serum (JRH), 1× penicillin/streptomycin (Gibco). After indicated treatments, GFP^u concentrations were assayed by densitometric analysis of immunoblots of total protein extracts (10 ug/lane) using monoclonal GFP antibodies (Santa Cruz Biotechnology) and visualized with HRP-conjugated secondary antibodies and ECL (Pierce). Loading equalization was normalized by probing blots with anti-ERK antibodies (Santa Cruz Biotechnology)."}, "mice (WT and APP/PS1)": {"tested_on": "mice (WT and APP/PS1)", "test": "Contextual and cued fear conditioning", "assay_type": "in vivo, mouse", "conditions": "for freezing time in contextual learning: at 21 days", "procedure": "Behavioral Studies: Fear conditioning was performed in a conditioning chamber as previously described (Bourtchuladze et al., 1994; Gong et al., 2004). For contextual and cued fear conditioning mice were placed in the conditioning chamber for 2 min before the onset of a discrete tone (CS) (a 30 sec sound at 2800 Hz and 85 dB). In the last 2 sec of the CS, mice were given a foot shock (US) of 0.50 mA for 2 sec through the bars of the floor. After the CS/US pairing, the mice were left in the conditioning chamber for another 30 sec and then placed back in their home cages. Freezing behavior, defined as the absence of all movement except for that necessitated by breathing, was scored using Freezeview software. To evaluate contextual fear learning, freezing was measured for 5 min in the chamber in which the mice were trained 24 hrs after training. To evaluate cued fear conditioning, following contextual testing, the mice were placed in a novel context (triangular cage with smooth flat floor and with vanilla odorant) for 2 min (pre-CS test), after which they were exposed to the CS for 3 min (CS test), and freezing was measured. To evaluate the contextual fear over time, mice were placed for 5 min in the chamber in which the mice were trained 7- 14- 21-days after training. Sensory perception of the shock was determined through threshold assessment. Each animal was placed individually into the conditioning chamber. […] Animal behavior was evaluated for the first visible response to the shock (flinch), the first extreme motor response (run/jump), and the first vocalized distress (scream). Threshold to flinching, jumping, and screaming was quantified for each animal by averaging of the shock intensity at which each animal manifested a behavioral response of that type to the foot shock. Visual, motor, and motivation skills were also tested with visible platform training by measuring the time and the speed to reach a visible platform placed within a pool filled with water (Gong et al., 2004). Both time to reach the platform and swimming speed were recorded and analyzed with a video tracking system (HVS-2020, HVS Image, UK). No difference was observed among different groups of mice in the experiments in which fear conditioning was tested both in the presence of LDN and TAT fusion proteins. To decide the time of administration of LDN, experiments were performed in which the inhibitor was injected intra-peritoneally at different intervals (4 hrs before, 1 hr before, 1 hr after and 4 hrs after) from the electric shock. During the training phase, no difference was found in the freezing of LDN- or vehicle-injected mice."}, "phospho-CREB at Ser-133": {"tested_on": "phospho-CREB at Ser-133", "test": "Phospho-CREB (Ser-133) Western blot in hippocampal cultures", "assay_type": "cell-based, rat", "conditions": "LDN 10 μM", "method_in_brief": "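Rat E18 hippocampal neurons cultured serum-free to 5 DIV, lysed in RIPA (pH 7.4, with phosphatase and protease inhibitors). Lysates resolved by SDS-PAGE and immunoblotted with anti-pCREB, HRP detection; band intensities quantified by densitometry and normalized to total ERK1/2.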"}, "[3]": {"tested_on": "CA1-LTP in hippocampal slices", "test": "CA1-LTP in hippocampal slices (theta-burst)", "assay_type": "cell-based, mouse"}, "[4]": {"conditions": "LDN 5 μM, 15 min, listed as LDN"}},
  "note": "“Also recorded” adds a separate entry of the source.",
  "data": [
    {"smiles": "CC(=O)O/N=C1\\C(=O)N(Cc2cc(Cl)ccc2Cl)c2ccc(Cl)cc21", "note": "[LDN-57444, reference compound]", "values": [
      {"measurement": "BST", "setting": "[1]; LDN 2.7 μM and 1 μM, 2-4 hr, listed as LDN", "result": "normal BST; also recorded: did not affect CA1-BST"},
      {"measurement": "BST", "setting": "[1]; LDN 5 μM, 15 min", "result": "did not affect BST or LTP; also recorded: did not affect CA1-BST"},
      {"measurement": "BST", "setting": "[1]; [4]", "result": "did not affect basal synaptic transmission (BST) or LTP; also recorded: does not affect CA1-BST"},
      {"measurement": "BST", "setting": "[1]; LDN 5 μM, 2 hrs", "result": "without affecting BST; also recorded: not affected"},
      {"measurement": "BST", "setting": "[1]; LDN 5 μM, 2 hrs, listed as LDN", "result": "without affecting BST; also recorded: not affected"},
      {"measurement": "BST", "setting": "[1]; LDN 5 μM, 4 hrs", "result": "strongly reduced"},
      {"measurement": "BST", "setting": "[1]; LDN 5 μM, 4 hrs, listed as LDN", "result": "reduced both; also recorded: strongly reduced"},
      {"measurement": "BST", "setting": "[1]; LDN-57444, 4 hour exposure", "result": "approximately 40 % of vehicle treated slices"},
      {"measurement": "GFP^u levels", "setting": "[2]", "result": "much larger increase in GFP"},
      {"measurement": "cued fear conditioning", "setting": "mice (WT and APP/PS1); LDN 0.4 mg/kg i.p.", "result": "did not show a difference"},
      {"measurement": "freezing time in contextual conditioning", "setting": "mice (WT and APP/PS1); LDN 0.4 mg/kg i.p. 4 hrs after the electric shock, twenty-four hours later", "result": "74 % of that of vehicle-treated mice"},
      {"measurement": "freezing time in contextual learning", "setting": "mice (WT and APP/PS1); LDN 0.4 mg/kg i.p.", "result": "about 70 % of vehicle-treated mice"},
      {"measurement": "freezing time in contextual learning", "setting": "mice (WT and APP/PS1); LDN 0.4 mg/kg i.p., listed as LDN", "result": "70 % of vehicle-treated mice"},
      {"measurement": "contextual conditioning performance", "setting": "mice (WT and APP/PS1); LDN 0.4 mg/kg i.p., context at 1, 7, 14 and 21 days after training", "result": "worsened contextual conditioning performance"},
      {"measurement": "contextual learning", "setting": "mice (WT and APP/PS1); LDN injected at 4 and 1 hour before the shock or at 1 hour after the shock", "result": "failed to impair contextual learning"},
      {"measurement": "freezing during the training phase", "setting": "mice (WT and APP/PS1); LDN- versus vehicle-injected mice", "result": "no difference"},
      {"measurement": "phospho-CREB enhancement / beneficial effect of TAT-HA-Uch-L1", "setting": "phospho-CREB at Ser-133", "result": "blocked the beneficial effect of TAT-HA-Uch-L1; also recorded: did not allow the enhancement of phospho-CREB"},
      {"measurement": "phospho-CREB enhancement / beneficial effect of TAT-HA-Uch-L1", "setting": "phospho-CREB at Ser-133; listed as LDN", "result": "blocked the beneficial effect of TAT-HA-Uch-L1; also recorded: did not allow the enhancement of phospho-CREB"},
      {"measurement": "LTP", "setting": "[3]; LDN 1 μM, 2-4 hr, listed as LDN", "result": "has no effect"},
      {"measurement": "LTP", "setting": "[3]; LDN 2.7 μM, 2-4 hr, listed as LDN", "result": "reduces CA1-LTP"},
      {"measurement": "LTP in Aβ-treated slices", "setting": "[3]; LDN 5 μM for 2 hrs, 200 nM Aβ, listed as LDN", "result": "does not further reduce potentiation; also recorded: did not further reduce LTP"},
      {"measurement": "LTP in APP/PS1 slices", "setting": "[3]; LDN 5 μM for 2 hrs, listed as LDN", "result": "does not further reduce potentiation; also recorded: did not further reduce LTP"},
      {"measurement": "LTP", "setting": "[3]; LDN 5 μM, 15 min", "result": "did not affect BST or LTP; also recorded: did not affect CA1-LTP"},
      {"measurement": "LTP", "setting": "[3]; [4]", "result": "did not affect basal synaptic transmission (BST) or LTP; also recorded: did not affect CA1-LTP"},
      {"measurement": "LTP", "setting": "[3]; LDN 5 μM, 2 hrs", "result": "blocked"},
      {"measurement": "LTP", "setting": "[3]; LDN 5 μM, 2 hrs, listed as LDN", "result": "diminished LTP; also recorded: reduced"},
      {"measurement": "LTP", "setting": "[3]; LDN 5 μM, 4 hrs", "result": "strongly reduced"},
      {"measurement": "LTP", "setting": "[3]; LDN 5 μM, 4 hrs, listed as LDN", "result": "reduced both; also recorded: strongly reduced"},
      {"measurement": "LTP", "setting": "[3]; LDN-57444, 2 hour exposure", "result": "approximately 70 % of vehicle treated slices"},
      {"measurement": "LTP", "setting": "[3]; LDN-57444, 4 hour exposure", "result": "~65 % of vehicle treated slices"},
      {"measurement": "baseline transmission in slices without tetanic stimulation", "setting": "[3]; non-tetanized slices", "result": "did not affect baseline transmission"}
    ]}
  ]
}
